Results published in paper PMC6887723, “Design and Synthesis of 4-(Heterocyclic Substituted Amino)-1H-Pyrazole-3-Carboxamide Derivatives and Their Potent Activity against Acute Myeloid Leukemia (AML)” (International Journal of Molecular Sciences, 2019).

Tests used:
Assay in all cases: NCI60 screening
Format in all cases: cell-based
IGROV1 = conditions: Homo sapiens, IGROV-1; Ovarian Cancer panel
Text: (§1) With these findings, we submitted compound 8t to National Cancer Institute (NCI) to evaluate their antitumor efficacy against 60 human cancer cell lines.

OVCAR-3 = conditions: Homo sapiens, Ovarian Cancer panel
Text: as §1

SK-MEL-2 = conditions: Homo sapiens, Melanoma panel
Text: as §1

MDA-MB-435 = conditions: Homo sapiens, Melanoma panel
Text: as §1

MCF7 = conditions: Homo sapiens, Breast Cancer panel
Text: as §1

CCRF-CEM = conditions: Homo sapiens, Leukemia panel
Text: as §1

NCI-H23 = conditions: Homo sapiens, Non-Small Cell Lung Cancer panel
Text: as §1

MDA-MB-468 = conditions: Homo sapiens, Breast Cancer panel
Text: as §1

HOP-62 = conditions: Homo sapiens, Non-Small Cell Lung Cancer panel
Text: as §1

HCC-2998 = conditions: Homo sapiens, Colon Cancer panel
Text: as §1

A549/ATCC = conditions: Homo sapiens, Non-Small Cell Lung Cancer panel
Text: as §1

SF-268 = conditions: Homo sapiens, CNS Cancer panel
Text: as §1

MDA-MB-231 = conditions: Homo sapiens, Breast Cancer panel
Text: as §1

CAKI-1 = conditions: Homo sapiens, Renal Cancer panel
Text: as §1

786-0 = conditions: Homo sapiens, Renal Cancer panel
Text: as §1

UACC-62 = conditions: Homo sapiens, Melanoma panel
Text: as §1

SK-OV-3 = conditions: Homo sapiens, Ovarian Cancer panel
Text: as §1

SR = conditions: Homo sapiens, Leukemia panel
Text: as §1

EKVX = conditions: Homo sapiens, Non-Small Cell Lung Cancer panel
Text: as §1

COLO 205 = conditions: Homo sapiens, Colon Cancer panel
Text: as §1

MOLT-4 = conditions: Homo sapiens, Leukemia panel
Text: as §1

HS 578T = conditions: Homo sapiens, Breast Cancer panel
Text: as §1

SF-539 = conditions: Homo sapiens, CNS Cancer panel
Text: as §1

NCI-H522 = conditions: Homo sapiens, Non-Small Cell Lung Cancer panel
Text: as §1

BT-549 = conditions: Homo sapiens, Breast Cancer panel
Text: as §1

SW-620 = conditions: Homo sapiens, Colon Cancer panel
Text: as §1

SNB-19 = conditions: Homo sapiens, CNS Cancer panel
Text: as §1

RPMI-8226 = conditions: Homo sapiens, Leukemia panel
Text: as §1

K-562 = conditions: Homo sapiens, K562; Leukemia panel
Text: as §1

SNB-75 = conditions: Homo sapiens, CNS Cancer panel
Text: as §1

OVCAR-5 = conditions: Homo sapiens, Ovarian Cancer panel
Text: as §1

UO-31 = conditions: Homo sapiens, Renal Cancer panel
Text: as §1

HCT-15 = conditions: Homo sapiens, Colon Cancer panel
Text: as §1

SF-295 = conditions: Homo sapiens, CNS Cancer panel
Text: as §1

OVCAR-4 = conditions: Homo sapiens, Ovarian Cancer panel
Text: as §1

SK-MEL-28 = conditions: Homo sapiens, Melanoma panel
Text: as §1

SK-MEL-5 = conditions: Homo sapiens, Melanoma panel
Text: as §1

## O=C(Nc1ccc(N2CCNCC2)cc1)c1n[nH]cc1Nc1ncnc2sc3c(c12)CCC3 [Compound 8t]
IGROV1
  GI50: 0.12 µM
OVCAR-3
  GI50: 0.23 µM
SK-MEL-2
  GI50: 1.16 µM
MDA-MB-435
  GI50: 0.11 µM
MCF7
  GI50: 0.16 µM
CCRF-CEM
  GI50: 0.22 µM
NCI-H23
  GI50: 0.26 µM
MDA-MB-468
  GI50: 0.42 µM
HOP-62
  GI50: 0.37 µM
HCC-2998
  GI50: 1.2 µM
A549/ATCC
  GI50: 0.14 µM
SF-268
  GI50: 0.72 µM
MDA-MB-231
  GI50: 1.93 µM
CAKI-1
  GI50: 0.08 µM
786-0
  GI50: 0.36 µM
UACC-62
  GI50: 1.09 µM
SK-OV-3
  GI50: 0.26 µM
SR
  GI50: 0.06 µM
EKVX
  GI50: 0.06 µM
COLO 205
  GI50: 0.12 µM
MOLT-4
  GI50: 0.08 µM
HS 578T
  GI50: 0.1 µM
SF-539
  GI50: 0.39 µM
NCI-H522
  GI50: 0.21 µM
BT-549
  GI50: 1.02 µM
SW-620
  GI50: 0.12 µM
SNB-19
  GI50: 0.24 µM
RPMI-8226
  GI50: 0.89 µM
K-562
  GI50: 0.12 µM
SNB-75
  GI50: 0.05 µM
OVCAR-5
  GI50: 0.27 µM
UO-31
  GI50: 0.4 µM
HCT-15
  GI50: 0.22 µM
SF-295
  GI50: 0.27 µM
OVCAR-4
  GI50: 0.22 µM
SK-MEL-28
  GI50: 1.13 µM
SK-MEL-5
  GI50: 0.25 µM
